In the METLIN SMRT retention time set (Domingo-Almenara et al. 2019) one finds RP-LC retention time data, which are given here for 80 molecules.

The nature of the series: gradient 5% acetonitrile 3 min, to 50% in 2 min, to 85% in 15 min, held 3 min, 100 µL/min. The conditions noted are these: column: Zorbax Extend-C18 2.1 x 50 mm; eluents: water / acetonitrile, 0.1% formic acid. An outline of the steps: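 A Zorbax Extend-C18 column (2.1 × 50 mm, 1.8 μm) run at 100 μL/min with water and acetonitrile, both containing 0.1% formic acid, separated mixtures of ~100 pure standards. The HPLC was coupled to a quadrupole time-of-flight mass spectrometer operated in positive and negative ionization mode, with dead and dwell volumes of 40 μL and 900 μL. Each retention time was taken from a computationally picked adduct peak that was then manually inspected.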
`CCOC(=O)c1cccc(NC(=O)CCc2c(-c3ccc(Cl)cc3)nc3ccccn23)c1`: the RP-LC retention time amounted to 739 s.

Molecule `Cc1cc(C(=O)NCc2ccccc2F)nc2cc(-c3cccs3)nn12` showed an RP-LC retention time of 1120 s.

As to `O=C(c1cc2c(s1)CCCC2)N1CCCN(c2nnc3ccc(Cl)cn23)CC1`, the RP-LC retention time turned out to be 863 s.

In turn, `COCc1c(C(=O)O)nnn1-c1ccccc1F` had an RP-LC retention time of 670 s.

`COCc1nc2ccccc2n1CC(=O)N(c1ccccc1)C(C)C` had an RP-LC retention time of 707 s.

On to `Cc1ccc(-c2csc(NC(=O)Cn3c(=O)sc4ccccc43)n2)cc1`, for which the RP-LC retention time stood at 1010 s.

As to `Cc1cccc(-c2[nH]c(C(C)(C)C)nc2-c2ccc3nccnc3c2)n1`, the RP-LC retention time came out at 659 s.

Take `Cn1c(N2CCCCS2(=O)=O)nc(C(=O)NCc2ccc(F)cc2)c(O)c1=O`: the RP-LC retention time was determined as 864 s.

Take `Cc1cc2c(cc1S(=O)(=O)N1CCCC1C(=O)Nc1ccc(Cl)cc1F)OC(C)C(=O)N2` (stereo not given): the RP-LC retention time worked out at 884 s.

Molecule `O=C1C(c2cccnc2)N(CCCc2ccccc2)C(=O)CN1c1ccccc1` (stereo not given) showed an RP-LC retention time of 776 s.

For the molecule `COC[C@@H]1CN(Cc2ccc(C#N)cc2)C[C@H]1c1ccccn1`, the RP-LC retention time is 553 s.

In turn, `CSc1cccc(NC(=O)CCc2c(-c3ccc(F)cc3)nc3ccccn23)c1` had an RP-LC retention time of 713 s.

`CN1C(=O)c2cccn2CC1CNC(=O)c1cccn1C` (stereo not given) displayed an RP-LC retention time of 636 s.

`Cc1noc(C)c1S(=O)(=O)N1CCC(c2noc(-c3ccccn3)n2)C1` (stereo not given) yielded an RP-LC retention time of 794 s.

`Cc1cc(C)n(-c2nc(CC(=O)N3CCc4ccccc4C3)cs2)n1` showed an RP-LC retention time of 970 s.

Turning to `CC1CCc2[nH]nc(C(N)=O)c2C1` (stereo not given), the RP-LC retention time was 614 s.

`O=C(NC1CC1)c1ccc(OCC2CCN(C(=O)c3ccc(C(F)(F)F)cc3)CC2)cc1` displayed an RP-LC retention time of 899 s.

Turning to `Cc1ccc(NC(=O)CSc2nc3nc(C)cc(C)n3n2)cc1`, the RP-LC retention time was determined as 726 s.

`O=C(Nc1cccc(Cl)c1)C1CCN(S(=O)(=O)c2cc(C(=O)N3CCCC3)cs2)CC1` registered an RP-LC retention time of 884 s.

In the case of `COCc1nc(-c2ccc(OC3CN(Cc4ccsc4)C3)cc2)no1`, the RP-LC retention time was determined as 656 s.

Molecule `COc1ccccc1NC(=O)CN1CCN(Cc2ccc(C)cc2)C(=O)C1=O` had an RP-LC retention time of 771 s.

Molecule `Cc1cccc(N2CCN(C(=O)c3cc(C4CC4)[nH]n3)CC2)c1C` returned an RP-LC retention time of 921 s.

`Cc1ccc(S(=O)(=O)N2CCCC(Cn3c(C)nc4cccnc43)C2)cc1` (stereo not given): the RP-LC retention time came out at 707 s.

In turn, `CC(=O)Nc1ccc(NC(=O)C2CC(=O)N(c3ccc4c(c3)CCN4C(=O)C3CC3)C2)cc1` (stereo not given) showed an RP-LC retention time of 658 s.

With `CC(C)c1ccc(-n2nc(N3CCN(C(=O)c4cccs4)CC3)ccc2=O)cc1`, the RP-LC retention time was determined as 913 s.

For `COCCCNC(=O)c1nn(-c2ccc(Cl)cc2)c2c(=O)n(C)cnc12`, the RP-LC retention time worked out at 716 s.

`O=C(NCc1cc(F)cc(F)c1)c1c(O)c2cccnc2n(-c2cccc(F)c2)c1=O` returned an RP-LC retention time of 1200 s.

`CCCCc1ccc(NC(=O)Cn2nc3cc(C)nc(-c4ccc(Cl)cc4)n3c2=O)cc1` gave an RP-LC retention time of 1200 s.

In turn, `CCc1cccc(NC(=O)C2CCN(S(=O)(=O)c3cn(CC)cn3)CC2)c1` came in with an RP-LC retention time of 794 s.

Regarding `COc1ccc(/C=C2\N=C(c3ccccc3)OC2=O)c(OCc2ccccc2)c1`, the RP-LC retention time amounted to 981 s.

In the case of `CN1C(=O)c2cccn2CC1CNC(=O)c1[nH]nc2c1COc1ccccc1-2` (stereo not given), the RP-LC retention time came to 685 s.

In the case of `CCCc1noc(-c2nnn3c2COC(c2ccc(OC)cc2)C3)n1` (stereo not given), the RP-LC retention time amounted to 1010 s.

In turn, `CCCC(=O)N1CC(c2nc(-c3ccccc3)no2)C2(CCOCC2)C1` (stereo not given) displayed an RP-LC retention time of 850 s.

`COc1cccc2sc(N3CCc4ccccc4C3)nc12`: the RP-LC retention time worked out at 1000 s.

For the molecule `CCN1CCCn2cc(S(=O)(=O)NCc3ccc(C)o3)cc2C1=O`, the RP-LC retention time came to 676 s.

`COc1cccc(N2CCCn3c2nc2c3c(=O)n(CC(=O)O)c(=O)n2C)c1` displayed an RP-LC retention time of 671 s.

For the molecule `CCCN1C(=O)c2c(C(=O)OC)ncn2CC1(C)C(=O)NCc1ccccc1` (stereo not given), the RP-LC retention time amounted to 640 s.

Take `COc1cccc(CNC(=O)c2cn3cccc(C)c3n2)c1OC`: the RP-LC retention time is 541 s.

Molecule `CSc1cccc(NC(=O)Cn2c(N3CCc4ccccc4C3)nc(C)cc2=O)c1` showed an RP-LC retention time of 840 s.

With `O=C(Cn1cccc1-c1nc(-c2ccc(Cl)cc2)cs1)N1CCCC1`, the RP-LC retention time was 1130 s.

`Cc1noc(C)c1Cc1ccc(C(=O)N2CCC(c3nc(CCOCC4CC4)no3)C2)o1` (stereo not given) showed an RP-LC retention time of 784 s.

In the case of `CCOC(=O)c1c(C)oc2nc(C)nc(N3CCN(c4ccc(OC)cc4)CC3)c12`, the RP-LC retention time turned out to be 979 s.

For `O=C(c1ccsc1)N1[C@H]2CC[C@@H]1c1cnc(-c3ccccc3)nc1C2`, the RP-LC retention time came to 886 s.

Molecule `COc1cccc(C(=O)NCC(C)(O)C2CC2)c1OC` (stereo not given) displayed an RP-LC retention time of 669 s.

`Cn1c(=O)c2c(-c3ccc(Cl)cc3)c(C#N)c(N)nc2n(C)c1=O` gave an RP-LC retention time of 814 s.

In turn, `Cc1cc(NC(=O)c2ccc(=O)n(C)n2)no1` displayed an RP-LC retention time of 598 s.

In the case of `CC(C)CNC(=O)c1nnc(-c2ccc(S(=O)(=O)N(C)C)cc2)o1`, the RP-LC retention time was found to be 787 s.

The molecule `O=C(c1ccco1)N1CCN(c2ccc(-c3nc(-c4cccc(F)c4)no3)cn2)CC1` had an RP-LC retention time of 893 s.

On to `COc1ccc(Nc2nc(N(C)C)nc3nccnc23)cc1`, for which the RP-LC retention time is 563 s.

The molecule `O=c1n(CCOc2ccc(F)cc2)nc2c(S(=O)(=O)N3CCCCCC3)cccn12` yielded an RP-LC retention time of 744 s.

As for `COc1ccc(NC(=O)Cn2nc(N3CCOCC3)c3ccccc3c2=O)cc1`, the RP-LC retention time stood at 730 s.

`Cc1ccc(F)cc1NS(=O)(=O)c1cc(-c2[nH]ncc2C(=O)N2CCCC2)oc1C`: the RP-LC retention time was determined as 739 s.

`CSc1ccccc1NC(=O)C(=O)NCC(c1ccc2c(c1)CCCN2C)N1CCCC1` (stereo not given) gave an RP-LC retention time of 784 s.

`O=c1c2sccc2n(Cc2nc(-c3ccc(C(F)(F)F)cc3)no2)c(=O)n1CCc1ccccc1` yielded an RP-LC retention time of 1270 s.

`Cc1ccccc1CC(=O)NC1CCN(c2ccccc2)C1=O` (stereo not given): the RP-LC retention time is 811 s.

Molecule `COC(=O)c1ccc(Cl)cc1NC(=O)N1CCN(Cc2nc3cc(Cl)ccc3o2)CC1` displayed an RP-LC retention time of 1150 s.

In turn, `COc1cccc(CNC(=O)CCc2nc3c(C)cccc3c(=O)n2C)c1OC` yielded an RP-LC retention time of 791 s.

`CCCNC(=O)N(C1CCOCC1)C1CCN(C(=O)c2cccs2)CC1` came in with an RP-LC retention time of 657 s.

As to `CC(C)CCNC(=O)C1CCCN(S(=O)(=O)c2ccc3nc(-c4ccccc4)[nH]c3c2)C1` (stereo not given), the RP-LC retention time is 841 s.

`O=C(c1csc(S(=O)(=O)N2CCC(C(=O)N3CCCCCC3)CC2)c1)N1CCOCC1`: the RP-LC retention time turned out to be 722 s.

In the case of `CSc1ccc(CNC(=O)C2CCCN(c3ccc(=O)n(-c4ccc(C)c(Cl)c4)n3)C2)cc1` (stereo not given), the RP-LC retention time was 1010 s.

As to `O=C(Nc1ccc(F)c(F)c1)C1CCCN(S(=O)(=O)Cc2ccccc2)C1` (stereo not given), the RP-LC retention time amounted to 998 s.

Consider `O=C(COc1ccc(F)c(F)c1)N1CCC(Nc2cccnc2)C1` (stereo not given), for which the RP-LC retention time amounted to 604 s.

Turning to `O=C(NCC(F)(F)F)C1CCN(S(=O)(=O)CCN2C(=O)CCCC2=O)CC1`, the RP-LC retention time came out at 637 s.

As for `COCCn1ccc2nc(C)c(C(=O)N3CCN(c4ccccn4)CC3)cc2c1=O`, the RP-LC retention time amounted to 554 s.

In turn, `Cc1cccc(-c2cc3n(n2)CCCN(C(=O)C2CCOC2)C3)c1` (stereo not given) displayed an RP-LC retention time of 735 s.

Molecule `CCCC(=O)Nc1cccc(NC(=O)c2ccccc2Br)c1` returned an RP-LC retention time of 863 s.

Regarding `CCS(=O)(=O)N1CCCc2cc(C(=O)NCCC3=CCCCC3)ccc21`, the RP-LC retention time was found to be 987 s.

For the molecule `CCn1cc(C)c(C(=O)O)c1CC(=O)N(C)c1ccccc1F`, the RP-LC retention time was determined as 770 s.

Molecule `COc1cccc(NC(=O)N2CCC3(CC2)N=C(c2ccc(Cl)cc2)C(=O)N3)c1` displayed an RP-LC retention time of 870 s.

Molecule `COc1ccc(C)cc1NC(=O)C1CCCN(C(=O)C2Sc3ccccc3NC2=O)C1` (stereo not given) displayed an RP-LC retention time of 852 s.

Consider `CCCN1C(=O)COc2ccc(-c3noc(-c4ccccc4C)n3)cc21`, for which the RP-LC retention time came out at 1290 s.

`COCC(=O)Nc1cnc(-c2ccc(OC)cc2)nc1` displayed an RP-LC retention time of 724 s.

Consider `Cc1cc(F)ccc1NC(=O)CN1C(=O)CCCc2cc(S(=O)(=O)N3CCCCC3)ccc21`, for which the RP-LC retention time is 959 s.

The molecule `Cc1noc(-c2ccnc(-n3ncc(C(=O)N4CCOCC4)c3C)c2)n1` had an RP-LC retention time of 693 s.

For `COc1ccc(NC(=O)c2cn3c(n2)COCC3)cc1Cl`, the RP-LC retention time was 703 s.

Consider `CSc1ccccc1NC(=O)C(=O)NCCn1nc(-c2ccco2)ccc1=O`, for which the RP-LC retention time was found to be 781 s.

With `Cn1c(=O)n(C)c2cc(CNCC(O)c3ccccc3)ccc21` (stereo not given), the RP-LC retention time amounted to 569 s.

`CCc1cccc(NS(=O)(=O)c2ccc(-c3nnc(C4CCC4)o3)o2)c1` displayed an RP-LC retention time of 1000 s.

On to `Cc1ccccc1CN1C(=O)CN(S(=O)(=O)c2ccccc2)CC1(C)C(=O)NC1CCCCC1` (stereo not given), for which the RP-LC retention time was 1020 s.
